One assay addresses T1, rat brain A1 receptor (Rattus norvegicus, UniProt P25099).
T1 construct: Rat cerebral cortical and striatal membranes were prepared; from tissue; host or cells: rat brain membranes (cerebral cortical)
T1 sequence (P25099 1-326): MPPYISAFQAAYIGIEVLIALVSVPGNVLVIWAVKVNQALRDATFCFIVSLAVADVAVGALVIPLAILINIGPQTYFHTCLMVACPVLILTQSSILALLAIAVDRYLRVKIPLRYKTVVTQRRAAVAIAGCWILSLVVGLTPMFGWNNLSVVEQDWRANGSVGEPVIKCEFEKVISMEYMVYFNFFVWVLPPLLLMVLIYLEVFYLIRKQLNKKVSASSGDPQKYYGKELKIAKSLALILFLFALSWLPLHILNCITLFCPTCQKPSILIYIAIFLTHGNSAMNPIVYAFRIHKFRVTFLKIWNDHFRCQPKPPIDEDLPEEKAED
Briefly: Displacement of [^3 H]PIA binding at A1 receptors. The note with it: for % Inhibition (A1): at 10^-4, rat brain.

A further assay concerns the target T2, rat brain A2a receptor (Rattus norvegicus, UniProt P30543).
T2 construct: A2 receptors from rat striatal membranes; from tissue; host or cells: rat striatal membranes
Briefly: Displacement of [^3 H]CGS 21680 binding at A2a receptors. Here is the method: Rat cerebral cortical and striatal membranes were prepared (Jacobson et al., J. Med. Chem., 35, 4143-4149 (1992)) and treated with ADA for 30 min at 37° C. prior to storage at -70° C.
The stock solutions were diluted with DMSO to a concentration of ≤0.1 mM prior to addition to the aqueous medium. The final concentration of DMSO in the assay medium was generally 2%.
At least six different concentrations spanning three orders of magnitude, adjusted appropriately for the IC50 of each compound, were used. […]. Pharmacol., 22, 3099-3108 (1973)).

Where [1] appears, read: [^3 H]PIA, rat brain membranes, Ki ± S.E.M., n = 3-6.
Where [2] appears, read: [^3 H]CGS 21680, rat brain membranes, Ki ± S.E.M., n = 3-6.
[3] abbreviates: at 10^-4, [^3 H]CGS 21680, rat brain.

29 compounds from US5688774A (priority 1995, dated 1997) can be followed below.

Like-named read-outs stand apart in the source and are kept apart here.

T2 sequence (P30543 whole entry): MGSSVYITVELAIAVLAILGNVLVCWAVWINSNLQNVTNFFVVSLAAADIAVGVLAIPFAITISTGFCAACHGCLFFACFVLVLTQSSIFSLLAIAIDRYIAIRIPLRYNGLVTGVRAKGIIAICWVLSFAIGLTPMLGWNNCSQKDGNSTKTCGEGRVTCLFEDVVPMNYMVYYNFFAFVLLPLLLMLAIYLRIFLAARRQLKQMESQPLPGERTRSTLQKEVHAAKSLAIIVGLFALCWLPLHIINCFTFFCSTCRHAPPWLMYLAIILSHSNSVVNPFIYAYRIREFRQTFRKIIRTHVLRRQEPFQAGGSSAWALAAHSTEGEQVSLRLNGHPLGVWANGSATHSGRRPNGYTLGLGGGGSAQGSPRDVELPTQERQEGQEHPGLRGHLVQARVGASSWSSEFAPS

As for `CNC(=O)[C@H]1O[C@@H](n2cnc3c(NCc4cccc(I)c4)nc(Cl)nc32)[C@H](OC(=O)c2ccccc2)[C@@H]1OC(=O)c1ccccc1` [2-Chloro-9-(2',3'-dibenzoyl-β-D-5-methyl-ribofuronamido)-N^6-(3-iodobenzyl)adenine], at rat brain A1 receptor ([^3 H]PIA), the “% Inhibition (A1)” value stood at 21%. For the same compound, the “% Inhibition (A2a)” value at rat brain A2a receptor came out at 7%.
Turning to `Cn1cnc2c(NCc3cccc(I)c3)nc(N)nc21` [Compound 9, 2-Amino-N^6-(3-iodobenzyl)-9-methyladenine], the figures for the Ki at rat brain A1 receptor (setting [1]) and on rat brain A2a receptor (setting [2]) were 5.57 ± 1.32 µM and 3.22 ± 1.52 µM, respectively.
As for `Cn1cnc2c(NCc3cccc(I)c3)nc(Cl)nc21` [Compound 6, 2-Chloro-N^6-(3-Iodobenzyl)-9-Methyladenine], the Ki on rat brain A1 receptor (setting [1]) amounted to 0.45 ± 0.11 µM; at rat brain A2a receptor (setting [2]) it was 2.7 ± 0.56 µM.
The like results for `OCCn1cnc2c(NCc3cccc(I)c3)ncnc21` [Compound 18, N^6-(3-Iodobenzyl)-9-Hydroxyethyladenine] were, in that order, 22.9 ± 3.7 µM and 15.1 ± 1.6 µM.
On the same counts, the results for 9-(β-talosyl)adenine are 150 ± 28 µM and 54.7 ± 3.1 µM.
Consider `CNc1nc(NCc2cccc(I)c2)c2ncn(C)c2n1` [Compound 11, N^6-(3-Iodobenzyl)-2-Methylamino-9-Methyladenine], for which the Ki was found to be 0.648 ± 0.102 µM at rat brain A1 receptor (setting [1]) and 3.56 ± 0.84 µM at rat brain A2a receptor (setting [2]).
On to `O=C(O)Cn1cnc2c(NCc3cccc(I)c3)ncnc21` [Compound 21, N^6-(3-Iodobenzyladenin-9-yl)acetic Acid], for which, on rat brain A1 receptor ([^3 H]PIA), the “% Inhibition (A1)” value was found to be 17%. The “% Inhibition (A2a)” value at rat brain A2a receptor was found to be 9%.
On to `CNc1nc(NCc2cccc(I)c2)c2ncn([C@@H]3OC[C@@H](O)[C@H]3O)c2n1` [Compound 29, 9-(β-D-Erythrofuranoside)-2-Methylamino-N^6-(3-Iodobenzyl)adenine], for which the Ki came to 0.66 ± 0.01 µM at rat brain A1 receptor and 3.39 ± 0.29 µM on rat brain A2a receptor.
`CNC(=O)[C@@H]1C[C@H](N)[C@H](n2cnc3c(NCc4cccc(I)c4)nc(Cl)nc32)O1` [Compound 43, 2-Chloro-9-(2'-Amino-2',3'-dideoxy-β-D-5'-methyl-Arabinofuronamido)N^6-(3-Iodobenzyl)adenine] displayed a Ki at rat brain A1 receptor (setting [1]) of 6.69 ± 0.74 µM. Moreover, the “% Inhibition (A2a)” value at rat brain A2a receptor (setting [3]) is on record as 2%.
For the compound `CNC(=O)[C@H]1C[C@@H](n2cnc3c(NCc4cccc(I)c4)ncnc32)[C@H](O)[C@@H]1O` (relative stereo) [Compound 61, (±)-9-[2α,3β-Dihydroxy-4β-(N-Methylcarbamoyl)Cyclopent-1β-yl)]-N^6-(3-Iodobenzyl)-adenine], the “% Inhibition (A2a)” value on rat brain A2a receptor (setting [3]) is given as 28 ± 5%.
With `Clc1nc(NCc2cccc(I)c2)c2ncn(C3CCCO3)c2n1` (stereo not shown) [Compound 30, 2-Chloro-N-(3-Iodobenzyl)-9-(2-Tetrahydrofuryl)-9H-Purin-6-Amine], the results for the Ki at rat brain A1 receptor and on rat brain A2a receptor were 0.174 ± 0.017 µM and 4.12 ± 0.18 µM, respectively.
With `N#CCCCn1cnc2c(NCc3cccc(I)c3)ncnc21` [Compound 22, N^6-(3-Iodobenzyl)-9-(3-Cyanopropyl)adenine], the Ki at rat brain A1 receptor (setting [1]) amounted to 6.03 ± 1.37 µM; on rat brain A2a receptor (setting [2]) it was 18.7 ± 5.8 µM.
On to `CCCNc1nc(NCc2cccc(I)c2)c2ncn(C)c2n1` [Compound 13, N^6-(3 -Iodobenzyl)-9-Methyl-2-Propylaminoadenine], for which the results for the Ki at rat brain A1 receptor and on rat brain A2a receptor were 0.33 ± 0.08 µM and 1.72 ± 0.7 µM, respectively.
Turning to `CNC(=O)[C@H]1O[C@@H](n2cnc3c(NOc4ccccc4)ncnc32)[C@H](O)[C@@H]1O` [Compound 71], the Ki on rat brain A2a receptor was determined as 66.3 µM.
Take `Cn1cnc2c(NCc3cccc(I)c3)ncnc21` [Compound 3, N^6-(3-Iodobenzyl)-9-Methyladenine]: the Ki at rat brain A1 receptor (setting [1]) is 5.73 ± 1.88 µM; at rat brain A2a receptor (setting [2]) it was 2.23 ± 1.33 µM.
On the same counts, the results for `Cn1cnc2c(NCc3cccc(I)c3)nc(NN)nc21` [Compound 10, 2-Hydrazido-N^6-(3-Iodobenzyl)-9-Methyladenine] are 5.44 ± 0.05 µM and 19.6 ± 7.8 µM.
`OC[C@@H](O)Cn1cnc2c(NCc3cccc(I)c3)ncnc21` [Compound 19, R--N^6-(3-Iodobenzyl)-9-(2,3-Dihydroxypropyl)adenine]: the figures for the Ki on rat brain A1 receptor (setting [1]) and on rat brain A2a receptor (setting [2]) were 13.8 ± 2.2 µM and 18.9 ± 1.9 µM, respectively.
Regarding `CNC(=O)[C@H]1O[C@@H](n2cnc3c(NCc4cccc(NC(=O)CCNC(=O)OC(C)(C)C)c4)ncnc32)[C@H](O)[C@@H]1O` [Compound 67, N^6-[3-(N-6-Boc-β-Alanylamino)Benzyl]Adenosine-5'-Methyluronamide], the Ki at rat brain A2a receptor turned out to be 1.96 µM.
On the same count and under the same terms, the same measure for `CNC(=O)[C@H]1O[C@@H](n2cnc3c(NCc4cccc(NC(=O)[C@@H]5CCCN5)c4)ncnc32)[C@H](O)[C@@H]1O` [Compound 65, N^6-[3-(L-Prolylamino)Benzyl]Adenosine-5'-N-Methyluronamide]: 0.215 ± 0.054 µM.
Turning to 2-Chloro-9-(β-arabinosyl)adenine, the inhibition constant (Ki) at rat brain A1 receptor (setting [1]) turned out to be 24.2 ± 7.9 µM; at rat brain A2a receptor (setting [2]), 90 ± 12.7 µM.
Take `Cn1cnc2c(NCc3cccc(I)c3)nc(Sc3ccncc3)nc21` [Compound 17, N^6-(3-Iodobenzyl)-9-Methyl-2-(4-Pyridylthio)adenine]: the Ki at rat brain A1 receptor (setting [1]) turned out to be 0.84 ± 0.19 µM; at rat brain A2a receptor (setting [2]), 11.6 ± 4 µM.
For `CNC(=O)[C@H]1O[C@@H](n2cnc3c(NCc4ccco4)ncnc32)[C@H](O)[C@@H]1O` [Compound 74, 1-(6-Furfurylamino-9H-Purin-9-yl)-1-Deoxy-N-Methyl-β-D-Ribofuranosiduronamide], the Ki at rat brain A1 receptor (setting [1]) was found to be 8.61 ± 2.55 µM; on rat brain A2a receptor (setting [2]) it was 6.22 ± 2.71 µM.
In the case of `CNC(=O)[C@H]1O[C@@H](n2cnc3c(NNc4ccccc4)ncnc32)[C@H](O)[C@@H]1O` [Compound 70, 6-(N'-phenylhydrazinyl)Purine-9-β-Ribofuranoside-5'-N-Methyluronamide], the Ki on rat brain A2a receptor was determined as 7.16 µM.
For the compound `COc1nc(NCc2cccc(I)c2)c2ncn(C)c2n1` [Compound 15, N^6-(3-Iodobenzyl)-2-Methoxy-9-Methyladenine], the Ki on rat brain A1 receptor (setting [1]) turned out to be 0.5 ± 0.21 µM; at rat brain A2a receptor (setting [2]), 1.24 ± 0.11 µM.
At rat brain A2a receptor, `CNC(=O)[C@H]1O[C@@H](n2cnc3c(NCc4cccc(NC(=O)CCN)c4)ncnc32)[C@H](O)[C@@H]1O` [Compound 66, N^6-[3(β-Alanylamino)Benzyl]Adenosine-5'-Methyluronamide] registered a Ki of 0.144 ± 0.04 µM.
Regarding `CNC(=O)[C@@H]1C[C@@H](OS(C)(=O)=O)[C@H](n2cnc3c(NCc4cccc(I)c4)nc(Cl)nc32)O1` [Compound 41, 2-Chloro-9-(3-Deoxy-2-Methanesulfonyl-β-D-5-Methyl-Ribofuronamido)-N^6-(3-Iodobenzyl)adenine], the figures for the Ki on rat brain A1 receptor (setting [1]) and on rat brain A2a receptor (setting [2]) were 1.29 ± 0.08 µM and 41.9 ± 6.2 µM, respectively.
`CCCCCCNc1nc(NCc2cccc(I)c2)c2ncn(C)c2n1` [Compound 14, 2-Hexylamino-N^6-(3-Iodobenzyl)-9-Methyladenine] registered a Ki on rat brain A1 receptor of 4.48 ± 0.82 µM. Further, on rat brain A2a receptor, the “% Inhibition (A2a)” value is 11 ± 4%.
As for `OC[C@H](O)Cn1cnc2c(NCc3cccc(I)c3)ncnc21` [Compound 20, S--N^6-(3-Iodobenzyl)-9-(2,3-Dihydroxypropyl)adenine], the Ki at rat brain A1 receptor (setting [1]) worked out at 19.1 ± 2.2 µM; at rat brain A2a receptor (setting [2]), 41.8 ± 12.5 µM.
The like results for `CN(C)c1nc(NCc2cccc(I)c2)c2ncn(C)c2n1` [Compound 12, 2-Dimethylamino-N^6-(3-Iodobenzyl)-9-Methyladenine] were, in that order, 1.48 ± 0.12 µM and 9.89 ± 3.01 µM.

The term Ki denotes a measure of affinity in units of concentration, obtained from inhibition or displacement. A lower Ki goes with a stronger hold on the target.
